Like-named read-outs stand apart in the source and are kept apart here.
Test system: Pyricularia oryzae
Format: in vivo
Conditions: root application as in Use Example 2, untreated control 80%

SMILES: CC(NC(=O)C(C#N)C1CC1)c1ccc(Cl)cc1 (centres unmarked) [I.1, N-(4′-Chlorophenyl)ethyl-1-cyclopropyl-1-cyanoacetamide]
- % infestation of leaves after application of an aqueous active compound preparation containing . . . ppm (10 ppm): 20%
- % infestation of leaves after application of an aqueous active compound preparation containing . . . ppm (50 ppm): 5%

From patent publication US6410486B1 (priority 1997, dated 2002)
